This is an account of results in patent US6410735B1, “1-(4-arylpiperazin-1-y1)-ω-[N-(α,ω-dicarboximido)]-alkanes useful as uro-selective α1-adrenoceptor blockers” (Ranbaxy Laboratories Limited, priority 1997, dated 2002).

Type in all cases: cell-based
Assay [1] addresses T1, α1B-adrenoceptor (spleen) (Rattus norvegicus, UniProt P15823).
T1 construct: Aorta, prostate and spleen tissues were isolated from urethane anaesthetized (1.5 gm/kg) male wistar rats; from tissue; host or cells: isolated spleen of male Wistar rats
T1 sequence (P15823 1-515): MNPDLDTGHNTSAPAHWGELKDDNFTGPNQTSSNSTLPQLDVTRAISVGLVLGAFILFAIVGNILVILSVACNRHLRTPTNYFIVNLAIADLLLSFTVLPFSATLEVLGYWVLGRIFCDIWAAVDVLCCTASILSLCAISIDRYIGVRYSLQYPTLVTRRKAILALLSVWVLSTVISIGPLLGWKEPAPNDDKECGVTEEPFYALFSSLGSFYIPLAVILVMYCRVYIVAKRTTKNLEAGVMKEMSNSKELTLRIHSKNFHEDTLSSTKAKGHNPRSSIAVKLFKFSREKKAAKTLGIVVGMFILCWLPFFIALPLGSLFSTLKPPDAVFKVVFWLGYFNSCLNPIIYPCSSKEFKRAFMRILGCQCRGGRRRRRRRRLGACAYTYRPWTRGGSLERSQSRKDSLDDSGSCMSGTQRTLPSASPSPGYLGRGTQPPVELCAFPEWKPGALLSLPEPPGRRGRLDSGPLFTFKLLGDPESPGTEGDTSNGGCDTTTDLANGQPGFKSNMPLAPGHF
Briefly: In vitro functional assay, phenylephrine-induced contraction of isolated spleen. The following applies: rat spleen, phenylephrine; read-out: In Vitro Functional Assay (pKB) α1B (converted). The text has this:
In order to study selectivity of action of the present compounds towards different α-adrenoceptor subtypes, the ability of these compounds to antagonize α1-adrenoceptor agonist induced contractile response of aorta (α1D), prostate (α1A) and spleen (α1B) was studied. Aorta, prostate and spleen tissues were isolated from urethane anaesthetized (1.5 gm/kg) male wistar rats. Isolated tissues were mounted in organ bath containing Krebs Henseleit buffer of the following composition (mM): NaCl 118; KCl 4.7; CaCl2 2.5; MgSO4·H2O 1.2; NaHCO3 25; KH2PO4 1.2; glucose 11.5. Buffer was maintained at 37° C. and aerated with a mixture of 95% O2 and 5% CO2. A resting tension of 2 g (aorta) or 1 g (spleen and prostate) was applied to tissues. Contractile response was monitored using a force displacement transducer and recorded on chart recorders. Tissues were allowed to equilibrate for 2 hours. At the end of equilibration period, concentration response curves to norepinephrine (aorta) and phenylephrine (spleen and prostate) were obtained in the absence and presence of the tested compound (at concentrations of 0.1, 1 and 10 μM). Antagonist affinity was calculated and expressed as PKB values in Table 1.

Another assay concerns the target T2, β1-adrenoceptor (Rattus norvegicus, UniProt P18090).
T2 construct: from tissue; host or cells: rat ventricular strips
Briefly: Receptor selectivity, electrically stimulated rat ventricular strips. The following applies: read-out: pKB B-adrenergic (converted). Here is the method:
(§1) Selectivity of action of the present compounds was tested against a range of different receptors, e.g., β1- and α2-adrenergic, muscarinic cholinergic, serotoninergic (5-HT2A), histaminergic (H1), angiotensin II, endothelin (ETA and B,), as well as calcium and potassium channels. Rat aorta was used to study the effect of the compounds on 5-HT2A, ETA, calcium and potassium channels. Angiotensin II receptor antagonistic activity was studied in rabbit aorta. Muscarinic cholinergic receptor and ETB receptor antagonistic activity was studied in rat trachea, while guinea pig trachea was used to study H1 receptor antagonistic activity. Electrically stimulated rat vas deferens was used to investigate the effect of α2-adrenoceptors, while β1-adrenoceptor antagonistic activity was studied using electrically stimulated rat ventricular strips. Results of this selectivity study is shown in (Table 2).

Another assay deals with T3, ETA (Rattus norvegicus, UniProt P26684).
T3 construct: from tissue; host or cells: rat aorta
T3 sequence (P26684 21-426): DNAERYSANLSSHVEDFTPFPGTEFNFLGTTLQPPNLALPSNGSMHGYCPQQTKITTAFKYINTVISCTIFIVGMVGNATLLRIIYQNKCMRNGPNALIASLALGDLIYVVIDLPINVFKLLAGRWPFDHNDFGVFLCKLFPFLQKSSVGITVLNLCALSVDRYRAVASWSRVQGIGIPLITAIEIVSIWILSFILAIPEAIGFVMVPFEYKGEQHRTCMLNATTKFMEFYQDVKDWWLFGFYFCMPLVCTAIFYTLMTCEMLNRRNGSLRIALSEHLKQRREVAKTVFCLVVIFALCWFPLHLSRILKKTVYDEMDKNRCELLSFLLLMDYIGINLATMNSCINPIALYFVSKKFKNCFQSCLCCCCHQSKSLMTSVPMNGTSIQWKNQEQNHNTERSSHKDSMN
The experiment in a line: Receptor selectivity, rat aorta. As to conditions: read-out: pKB ETA (converted). As to the method: as §1

The target of a further assay is T4, ETB receptor (Rattus norvegicus, UniProt P21451).
T4 construct: from tissue; host or cells: rat trachea
T4 sequence (P21451 27-442): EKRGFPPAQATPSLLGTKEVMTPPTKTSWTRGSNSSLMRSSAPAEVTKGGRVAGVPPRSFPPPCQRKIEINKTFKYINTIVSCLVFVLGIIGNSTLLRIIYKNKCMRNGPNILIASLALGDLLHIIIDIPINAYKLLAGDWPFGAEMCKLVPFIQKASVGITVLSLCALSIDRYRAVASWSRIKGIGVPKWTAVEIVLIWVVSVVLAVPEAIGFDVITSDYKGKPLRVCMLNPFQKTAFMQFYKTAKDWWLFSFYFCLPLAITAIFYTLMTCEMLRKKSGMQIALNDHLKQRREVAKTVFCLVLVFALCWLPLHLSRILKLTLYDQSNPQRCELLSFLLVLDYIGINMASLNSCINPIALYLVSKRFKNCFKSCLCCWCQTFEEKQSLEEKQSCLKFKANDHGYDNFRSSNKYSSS
The experiment in a line: Receptor selectivity, rat trachea. The following applies: read-out: pKB ETB (converted). Here is the method:
as §1

In another assay the target is T5, Angiotensin II receptor (Oryctolagus cuniculus, UniProt P34976).
T5 construct: from tissue; host or cells: rabbit aorta
T5 sequence (P34976 1-359): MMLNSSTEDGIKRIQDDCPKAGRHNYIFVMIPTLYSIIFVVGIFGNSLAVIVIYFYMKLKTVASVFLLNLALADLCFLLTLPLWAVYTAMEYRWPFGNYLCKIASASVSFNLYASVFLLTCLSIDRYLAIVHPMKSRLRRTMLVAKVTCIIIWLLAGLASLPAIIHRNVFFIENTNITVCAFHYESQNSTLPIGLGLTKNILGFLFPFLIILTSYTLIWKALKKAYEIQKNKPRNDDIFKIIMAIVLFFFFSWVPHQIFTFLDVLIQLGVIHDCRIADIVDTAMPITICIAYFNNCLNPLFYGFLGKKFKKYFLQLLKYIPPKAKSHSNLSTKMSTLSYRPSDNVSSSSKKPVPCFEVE
The experiment in a line: Receptor selectivity, rabbit aorta. The following applies: read-out: pKB Angiotensin II (converted). As to the method: as §1

T2 sequence (P18090 whole entry): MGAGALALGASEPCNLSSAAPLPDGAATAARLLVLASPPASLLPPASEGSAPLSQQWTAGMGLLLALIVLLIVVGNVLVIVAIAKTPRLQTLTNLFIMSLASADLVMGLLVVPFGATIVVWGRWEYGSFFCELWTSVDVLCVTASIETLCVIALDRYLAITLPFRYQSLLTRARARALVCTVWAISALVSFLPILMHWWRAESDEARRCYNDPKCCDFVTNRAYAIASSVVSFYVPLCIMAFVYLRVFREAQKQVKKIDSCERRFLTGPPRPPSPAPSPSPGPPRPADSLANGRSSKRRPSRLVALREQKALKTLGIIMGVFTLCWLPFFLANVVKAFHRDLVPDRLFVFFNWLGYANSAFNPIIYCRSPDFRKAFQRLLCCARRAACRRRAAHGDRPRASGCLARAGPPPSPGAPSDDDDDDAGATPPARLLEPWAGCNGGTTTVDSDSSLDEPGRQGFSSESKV

As to `COc1ccccc1N1CCN(CCCN2C(=O)CCC2=O)CC1` [Compound 2, 1-[4-(2-Methoxyphenyl)piperazin-1-yl]3-(2,5-dioxopyrrolidin-1-yl)propane], the Kb in assay [1] was 0.0251 µM; on β1-adrenoceptor it was 63.1 µM.

On to `COc1ccccc1N1CCN(CCCCN2C(=O)CCC2=O)CC1` [Compound 9, 1-[4-(2-Methoxyphenyl)piperazin-1-yl]-4-(2,5-dioxopyrrolidin-1-yl)butane], for which the Kb in assay [1] is 0.01 µM; on ETA, 50.1 µM; on ETB receptor, 3.98 µM; on Angiotensin II receptor it was 2.51 µM.

Consider `COc1ccccc1N1CCN(CCCN2C(=O)CCCC2=O)CC1` [Compound 13, 1-[4-(2-Methoxyphenyl)piperazin-1-yl]-3-(2,6-dioxopiperidin-1-yl)propane], for which the Kb in assay [1] was 0.01 µM; at ETA, 50.1 µM; on ETB receptor it was 12.6 µM; on β1-adrenoceptor, 7.94 µM; at Angiotensin II receptor, 5.01 µM.
